Results as given in patent publication US8022099B2, “N-benzyl pyrrolidine derivatives” (Hoffmann-La Roche Inc., priority 2008, dated 2011).

Molecular target: T1, human NK3 receptor (Homo sapiens, UniProt P29371)
T1 construct: expressed in transfected cells; host or cells: HEK293 cells (transient expression), membrane preparation
T1 sequence (P29371 1-465): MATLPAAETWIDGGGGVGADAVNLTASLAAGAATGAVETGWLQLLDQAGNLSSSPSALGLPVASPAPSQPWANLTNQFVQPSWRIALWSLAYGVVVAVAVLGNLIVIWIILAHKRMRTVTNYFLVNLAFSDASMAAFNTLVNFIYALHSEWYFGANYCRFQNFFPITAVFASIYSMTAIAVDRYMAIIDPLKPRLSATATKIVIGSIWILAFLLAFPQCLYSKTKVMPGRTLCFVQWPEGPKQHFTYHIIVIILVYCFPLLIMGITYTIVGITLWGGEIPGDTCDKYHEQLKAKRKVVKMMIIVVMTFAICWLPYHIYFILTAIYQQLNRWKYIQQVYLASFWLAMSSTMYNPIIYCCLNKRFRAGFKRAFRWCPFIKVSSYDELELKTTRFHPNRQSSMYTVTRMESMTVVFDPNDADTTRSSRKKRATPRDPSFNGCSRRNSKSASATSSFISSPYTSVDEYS
Test: [3H]SR142801 competition binding assay
Conditions: hNK3 receptor binding, [3H]SR142801, membranes from HEK293 cells transiently expressing recombinant human NK3 receptor
Method in brief: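 Membranes from HEK293 cells transiently expressing human NK3 were incubated 75 min at RT with [3H]SR142801 at its KD and inhibitor (0.0003-10 μM) in Tris-HCl pH 7.4/MnCl2/phosphoramidon/BSA. Nonspecific binding used 10 μM SB222200. Ki from Hill-fitted IC50 via Cheng-Prusoff, duplicate determinations.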

| Compound | Ki [nM] |
| --- | --- |
| CN(C)CCN1CCN(CC(=O)N2C[C@H](c3ccc(Cl)c(Cl)c3)[C@@H](N(C)Cc3ccc(C(F)(F)F)c(F)c3)C2)CC1 (racemic) [Example 117, 1-{(3SR,4RS)-3-(3,4-Dichloro-phenyl)-4-[(3-fluoro-4-trifluoromethyl-benzyl)-methyl-amino]-pyrrolidin-1-yl}-2-[4-(2-dimethylamino-ethyl)-piperazin-1-yl]-ethanone] | 19.3 |
| CN(C)[C@@H]1CCN(C(=O)N2C[C@H](c3ccc(Cl)c(Cl)c3)[C@@H](N(C)Cc3ccc(C(F)(F)F)c(F)c3)C2)C1 (mixture of isomers) [Example 57, {(3SR,4RS)-3-(3,4-Dichloro-phenyl)-4-[(3-fluoro-4-trifluoromethyl-benzyl)-methyl-amino]-pyrrolidin-1-yl}-((R)-3-dimethylamino-pyrrolidin-1-yl)-methanone] | 74.8 |
| CN(Cc1ccc(C(F)(F)F)c(F)c1)[C@H]1CN(C(=O)CN2CCC(N3CCOCC3=O)CC2)C[C@@H]1c1ccc(Cl)c(Cl)c1 (racemic) [Example 145, 4-[1-(2-{(3SR,4RS)-3-(3,4-Dichloro-phenyl)-4-[(3-fluoro-4-trifluoromethyl-benzyl)-methyl-amino]-pyrrolidin-1-yl}-2-oxo-ethyl)-piperidin-4-yl]-morpholin-3-one] | 13.7 |
| COc1cccc(N2CCN(C(=O)N3C[C@H](c4ccc(Cl)c(Cl)c4)[C@@H](N(C)Cc4ccc(C(F)(F)F)c(F)c4)C3)CC2)n1 (racemic) [Example 77, {(3SR,4RS)-3-(3,4-Dichloro-phenyl)-4-[(3-fluoro-4-trifluoromethyl-benzyl)-methyl-amino]-pyrrolidin-1-yl}-[4-(6-methoxy-pyridin-2-yl)-piperazin-1-yl]-methanone] | 26.8 |
| CN(Cc1ccc(C(F)(F)F)c(F)c1)[C@H]1CN(C(=O)CN2CCC(O)CC2)C[C@@H]1c1ccc(Cl)c(Cl)c1 (racemic) [Example 132, 1-{(3SR,4RS)-3-(3,4-Dichloro-phenyl)-4-[(3-fluoro-4-trifluoromethyl-benzyl)-methyl-amino]-pyrrolidin-1-yl}-2-(4-hydroxy-piperidin-1-yl)-ethanone] | 26.3 |
| CN(Cc1ccc(C(F)(F)F)c(F)c1)[C@H]1CN(C(=O)N2CCN(S(C)(=O)=O)CC2)C[C@@H]1c1ccc(Cl)cc1 (racemic) [Example 30, {(3SR,4RS)-3-(4-Chloro-phenyl)-4-[(3-fluoro-4-trifluoromethyl-benzyl)-methyl-amino]-pyrrolidin-1-yl}-(4-methanesulfonyl-piperazin-1-yl)-methanone] | 28.4 |
| CN(Cc1ccc(C(F)(F)F)c(F)c1)[C@H]1CN(C(=O)CN2CCC(N3CCCCC3=O)CC2)C[C@@H]1c1ccc(Cl)c(Cl)c1 (racemic) [Example 146, 1′-(2-{(3SR,4RS)-3-(3,4-Dichloro-phenyl)-4-[(3-fluoro-4-trifluoromethyl-benzyl)-methyl-amino]-pyrrolidin-1-yl}-2-oxo-ethyl)-[1,4′]bipiperidinyl-2-one] | 14.9 |
| CN(Cc1ccc(C#N)cc1)[C@H]1CN(C(=O)N2CCN(S(C)(=O)=O)CC2)C[C@@H]1c1ccc(Cl)c(Cl)c1 (racemic) [Example 34, 4-({[(3RS,4SR)-4-(3,4-Dichloro-phenyl)-1-(4-methanesulfonyl-piperazine-1-carbonyl)-pyrrolidin-3-yl]-methyl-amino}-methyl)-benzonitrile] | 32.2 |
| CN(Cc1ccc(C(F)(F)F)c(F)c1)[C@H]1CN(C(=O)CCCCn2ccnc2)C[C@@H]1c1ccc(Cl)c(Cl)c1 (racemic) [Example 91, 1-{(3SR,4RS)-3-(3,4-Dichloro-phenyl)-4-[(3-fluoro-4-trifluoromethyl-benzyl)-methyl-amino]-pyrrolidin-1-yl}-5-imidazol-1-yl-pentan-1-one] | 57.2 |
| CN(CCC#N)CC(=O)N1C[C@H](c2ccc(Cl)c(Cl)c2)[C@@H](N(C)Cc2ccc(C(F)(F)F)c(F)c2)C1 (racemic) [Example 128, 3-[(2-{(3SR,4RS)-3-(3,4-Dichloro-phenyl)-4-[(3-fluoro-4-trifluoromethyl-benzyl)-methyl-amino]-pyrrolidin-1-yl}-2-oxo-ethyl)-methyl-amino]-propionitrile] | 72 |
| CN(C)C1CCN(CC(=O)N2C[C@H](c3ccc(Cl)c(Cl)c3)[C@@H](N(C)Cc3ccc(C(F)(F)F)c(F)c3)C2)CC1 (racemic) [Example 136, 1-{(3SR,4RS)-3-(3,4-Dichloro-phenyl)-4-[(3-fluoro-4-trifluoromethyl-benzyl)-methyl-amino]-pyrrolidin-1-yl}-2-(4-dimethylamino-piperidin-1-yl)-ethanone] | 18.9 |
| CN(Cc1ccc(Cl)cc1)[C@H]1CN(C(=O)N2CCN(S(C)(=O)=O)CC2)C[C@@H]1c1ccc(Cl)c(Cl)c1 (racemic) [Example 33, [(3RS,4SR)-3-[(4-Chloro-benzyl)-methyl-amino]-4-(3,4-dichloro-phenyl)-pyrrolidin-1-yl]-(4-methanesulfonyl-piperazin-1-yl)-methanone] | 33.6 |
| CN(Cc1ccc(C#N)cc1)[C@H]1CN(C(=O)N2CCN(S(C)(=O)=O)CC2)C[C@@H]1c1ccc(Cl)cc1 (racemic) [Example 26, 4-({[(3RS,4SR)-4-(4-Chloro-phenyl)-1-(4-methanesulfonyl-piperazine-1-carbonyl)-pyrrolidin-3-yl]-methyl-amino}-methyl)-benzonitrile] | 82.5 |
| CN(Cc1ccc(C(F)(F)F)c(F)c1)[C@H]1CN(C(=O)CN2CCNCC2)C[C@@H]1c1ccc(Cl)c(Cl)c1 (racemic) [Example 131, 1-{(3SR,4RS)-3-(3,4-Dichloro-phenyl)-4-[(3-fluoro-4-trifluoromethyl-benzyl)-methyl-amino]-pyrrolidin-1-yl}-2-piperazin-1-yl-ethanone] | 33.4 |

Stronger by Ki, values ahead:

| Ki [nM] | Compound |
| --- | --- |
| 12 | CN(Cc1ccc(C(F)(F)F)c(F)c1)[C@H]1CN(C(=O)CN2CCC(NS(C)(=O)=O)CC2)C[C@@H]1c1ccc(Cl)c(Cl)c1 (racemic) [Example 143, N-[1-(2-{(3SR,4RS)-3-(3,4-Dichloro-phenyl)-4-[(3-fluoro-4-trifluoromethyl-benzyl)-methyl-amino]-pyrrolidin-1-yl}-2-oxo-ethyl)-piperidin-4-yl]-methanesulfonamide] |
| 11.2 | CN(Cc1ccc(C(F)(F)F)c(F)c1)[C@H]1CN(C(=O)CN2CCN(CCC#N)CC2)C[C@@H]1c1ccc(Cl)c(Cl)c1 (racemic) [Example 118, 3-[4-(2-{(3SR,4RS)-3-(3,4-Dichloro-phenyl)-4-[(3-fluoro-4-trifluoromethyl-benzyl)-methyl-amino]-pyrrolidin-1-yl}-2-oxo-ethyl)-piperazin-1-yl]-propionitrile] |
| 8.3 | CN(Cc1ccc(C(F)(F)F)c(F)c1)[C@H]1CN(C(=O)N2CCN(S(C)(=O)=O)CC2)C[C@@H]1c1ccc(Cl)c(Cl)c1 (racemic) [Example 31, {(3SR,4RS)-3-(3,4-Dichloro-phenyl)-4-[(3-fluoro-4-trifluoromethyl-benzyl)-methyl-amino]-pyrrolidin-1-yl}-(4-methanesulfonyl-piperazin-1-yl)-methanone] |
| 6.2 | CN(Cc1ccc(C(F)(F)F)c(F)c1)[C@H]1CN(C(=O)N2CCN(CCO)CC2)C[C@@H]1c1ccc(Cl)c(Cl)c1 (racemic) [Example 67, {(3SR,4RS)-3-(3,4-Dichloro-phenyl)-4-[(3-fluoro-4-trifluoromethyl-benzyl)-methyl-amino]-pyrrolidin-1-yl}-[4-(2-hydroxy-ethyl)-piperazin-1-yl]-methanone] |
| 4.8 | CCN(CC)C(=O)N1CCN(C(=O)N2C[C@H](c3ccc(Cl)c(Cl)c3)[C@@H](N(C)Cc3ccc(C(F)(F)F)c(F)c3)C2)CC1 (racemic) [Example 78, 4-{(3SR,4RS)-3-(3,4-Dichloro-phenyl)-4-[(3-fluoro-4-trifluoromethyl-benzyl)-methyl-amino]-pyrrolidine-1-carbonyl}-piperazine-1-carboxylic acid diethylamide] |
| 4.7 | CN(Cc1ccc(C(F)(F)F)c(F)c1)[C@H]1CN(C(=O)N2CCN(c3cnccn3)CC2)C[C@@H]1c1ccc(Cl)c(Cl)c1 (racemic) [Example 69, {(3SR,4RS)-3-(3,4-Dichloro-phenyl)-4-[(3-fluoro-4-trifluoromethyl-benzyl)-methyl-amino]-pyrrolidin-1-yl}-(2,3,5,6-tetrahydro-[1,2′]bipyrazinyl-4-yl)-methanone] |
| 4.6 | CN(C)CCN1CCN(C(=O)N2C[C@H](c3ccc(Cl)c(Cl)c3)[C@@H](N(C)Cc3ccc(C(F)(F)F)c(F)c3)C2)CC1 (racemic) [Example 75, {(3SR,4RS)-3-(3,4-Dichloro-phenyl)-4-[(3-fluoro-4-trifluoromethyl-benzyl)-methyl-amino]-pyrrolidin-1-yl}-[4-(2-dimethylamino-ethyl)-piperazin-1-yl]-methanone] |
| 3.6 | C[C@@H]1CN(C(=O)N2C[C@H](c3ccc(Cl)c(Cl)c3)[C@@H](N(C)Cc3ccc(C(F)(F)F)c(F)c3)C2)CCN1S(C)(=O)=O (mixture of isomers) [Example 60, {(3SR,4RS)-3-(3,4-Dichloro-phenyl)-4-[(3-fluoro-4-trifluoromethyl-benzyl)-methyl-amino]-pyrrolidin-1-yl}-((R)-4-methanesulfonyl-3-methyl-piperazin-1-yl)-methanone] |
